{"source": "patent US4616025A", "about": "“Thiazolidine derivatives, process for the preparation and pharmaceutical compositions thereof” (Richter Gedeon Vegyeszeti Gyar RT, priority 1983, dated 1986)", "key": {"[1]": {"test_system": "indomethacin-induced intestinal ulceration", "test": "Indomethacin-induced fatal intestinal ulceration (15 mg/kg p.o.), inflation technique", "assay_type": "in vivo, rat (female H-Wistar)", "conditions": "indomethacin 15 + 150 mg/kg p.o.", "protocol": "Indomethacin-induced intestinal ulceration\nOf the non-steroidal antiinflammatory agents indomethacin has not only a gastric-ulcer inducing side-effect but may also cause serious intestinal ulceration. Depending on the dose, the intestinal ulceration may be fatal, peritonitis due to intestinal perforations kills the animals.\n(a) Indomethacin-induced fatal intestinal ulceration\nNon-fasted, female H-Winstar rats, weighing 120-150 g each were treated orally with a 15 mg/kg dose of indomethacin (in Tween 80 suspension). […] Under these conditions it requires about 48 to 72 hours to detect intenstinal ulceration.\n(§1) To evaluate the development of intestinal ulcers the so-called inflation technique by Ezer and Szporny (J. Pharm. Pharmacol. 27, 866 (1975)) was employed. By this method the progress of ulceration can be monitored quantitatively. The tensile strength of the intestinal wall expressed in mmHg weakens gradually parallel with the progress of ulceration."}, "[2]": {"test_system": "indomethacin-induced non-fatal intestinal ulceration", "test": "Indomethacin-induced (7.5 mg/kg p.o.) non-fatal intestinal ulceration, post-treatment, inflation technique", "assay_type": "in vivo, rat (H-Wistar)", "protocol": "as §1\n(b) Indomethacin-induced non-fatal ulceration\nNon-fasted H-Wistar rats weighing 120 to 150 g each were administered 7.5 mg/kg indomethacin orally, to induce non-fatal intestinal ulceration. 4, 24 and 48 hours, respectively, after the indomethacin treatment the animals were treated with the test material orally. The animals were killed 24 hours after the last treatment and 72 hours after the ulcer-induction performed with indomethacin, respectively. Ulceration was evaluated by the inflation technique."}, "[3]": {"test_system": "gastric necrosis induced by absolute alcohol", "test": "Gastric necrosis induced by absolute alcohol (cytoprotection)", "assay_type": "in vivo, rat (female H-Wistar)", "protocol": "Gastric necrosis induced by absolute alcohol\nWater was allowed ad libitum. The compounds to be tested were administered orally, 30 minutes prior to the administration of 0.5 ml of ethanol/100 g of body weight through a canula. Two hours later the animals were killed by overdosing ether. Stomachs were removed and opened along the major curvature. […] Degree of the cytoprotection was expressed in % related to the control."}, "[4]": {"test_system": "intestinal ulceration induced by indomethacin", "conditions": "literature; cited from earlier work"}, "ulceration": {"test_system": "ulceration", "conditions": "rheumatic patients simultaneously suffering from ulceration; cited from earlier work"}}}
{"smiles": "CN/C(=N/CCSCc1nc[nH]c1C)NC#N", "note": "[Cimetidine, N-cyano-N'-methyl-N\"-2-[(5-methyl-imidazole-4-yl)-methylthio]-ethyl-guanidine, reference compound]", "values": [{"measurement": "Intestinal wall resistency in % of normal", "setting": "[1]", "result": "21 % of normal"}, {"measurement": "T.s. of intestinal wall 72 hours after treatment", "setting": "[1]", "result": "47 ± 25", "unit": "mm Hg"}, {"measurement": "T.s. of intestinal wall 72 hours after indomethacin treatment", "setting": "[2]; 7.5 + 3 × 50 mg/kg p.o., 4, 24, 48 hours after indomethacin", "result": "184 ± 7", "unit": "mm Hg"}, {"measurement": "T.s. of intestinal wall 72 hours after indomethacin treatment", "setting": "[2]; 7.5 + 3 × 100 mg/kg p.o., 4, 24, 48 hours after indomethacin", "result": "197 ± 10", "unit": "mm Hg"}, {"measurement": "Non-fatal intestinal ulceration post-treatment, in words", "setting": "[2]; post-treatment 4, 24 and 48 hours after indomethacin 7.5 mg/kg p.o.", "result": "ineffective"}, {"measurement": "Cytoprotection", "setting": "[3]; 6.0 mg/kg p.o.", "result": 44, "unit": "%"}, {"measurement": "Length of average lesion", "setting": "[3]; 6.0 mg/kg p.o.", "result": "46.0 ± 10", "unit": "mm/stomach"}, {"measurement": "Cytoprotection", "setting": "[3]; 12.0 mg/kg p.o.", "result": 24, "unit": "%"}, {"measurement": "Length of average lesion", "setting": "[3]; 12.0 mg/kg p.o.", "result": "63.0 ± 18", "unit": "mm/stomach"}, {"measurement": "Cytoprotection", "setting": "[3]; 25.0 mg/kg p.o.", "result": 33, "unit": "%"}, {"measurement": "Length of average lesion", "setting": "[3]; 25.0 mg/kg p.o.", "result": "55.0 ± 12", "unit": "mm/stomach"}, {"measurement": "Cytoprotection", "setting": "[3]; 50.0 mg/kg p.o.", "result": 59, "unit": "%"}, {"measurement": "Length of average lesion", "setting": "[3]; 50.0 mg/kg p.o.", "result": "34.0 ± 10", "unit": "mm/stomach"}, {"measurement": "Cytoprotection", "setting": "[3]; 100.0 mg/kg p.o.", "result": 43, "unit": "%"}, {"measurement": "Length of average lesion", "setting": "[3]; 100.0 mg/kg p.o.", "result": "47.0 ± 16", "unit": "mm/stomach"}, {"measurement": "Indomethacin-induced intestinal ulceration, in words", "setting": "[4]", "result": "cannot inhibit intestinal ulceration induced by indomethacin"}, {"measurement": "Outcome of simultaneous administration of cimetidine and indomethacin", "setting": "ulceration", "result": "perforation in rheumatic patients"}]}
